# Test results taken from US20250388605A1, “HETEROBIFUNCTIONAL COMPOUNDS AND METHODS OF TREATING DISEASE” (Halda Therapeutics OpCo, Inc., priority 2022, published 2025).
# System: VCaP cells
# Test: Cellular growth inhibition assay for VCaP cells, CellTiter-Glo
# Assay type: cell-based, human
# Details: 72 hours
# Procedure, shortened: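 GI50 values come from four-parameter curve fits of luminescence data normalized to a zero baseline. Compound, in medium with 0.5% DMSO, was added one day after plating and left for 72 h before CellTiter-Glo 2.0 addition.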
row,GI50 [µM],SMILES
1,< 0.5,CN(C1CN(c2ccc(Oc3ccc(C(C)(C)O)cc3-c3cn(C)c(=O)c4[nH]ccc34)cc2)C1)C1CN(c2ncc(C(=O)N[C@H]3C(C)(C)[C@H](Oc4ccc(C#N)c(Cl)c4)C3(C)C)cn2)C1 [Compound I-238]
2,< 0.5,CN(CC1CCN(c2ncc(C(=O)N[C@H]3C(C)(C)[C@H](Oc4ccc(C#N)c(Cl)c4)C3(C)C)cn2)CC1)C1(c2ccc(Oc3ccc(C(C)(C)O)cc3-c3cn(C)c(=O)c4[nH]ccc34)cc2)COC1 [Compound I-255]
3,< 0.5,CCS(=O)(=O)Nc1ccc(Oc2cccc(OC3CC(C4CCN(c5ncc(C(=O)N[C@H]6C(C)(C)[C@H](Oc7ccc(C#N)c(Cl)c7)C6(C)C)cn5)CC4)C3)c2)c(-c2cn(C)c(=O)c3[nH]ccc23)c1 (stereo partly shown) [Compound I-104]
4,1.5 to 3,Cn1cc(-c2cc(C(C)(C)O)ccc2Oc2ccc(N3CC4(C3)CN(c3ncc(C(=O)N[C@H]5C(C)(C)[C@H](Oc6ccc(C#N)c(Cl)c6)C5(C)C)cn3)CCO4)cc2)c2cc[nH]c2c1=O [Compound I-212]

# Same assay, conditions: Homo sapiens, 72 hours
row,SMILES,GI50 [µM]
1,"CCS(=O)(=O)Nc1ccc(Oc2cccc(OCCOC3CCN(c4ccc(C(=O)N[C@H]5C(C)(C)[C@H](Oc6ccc(C#N)c(Cl)c6)C5(C)C)cn4)CC3)c2)c(-c2cn(C)c(=O)c3[nH]ccc23)c1 [Compound I-70, N-((1r, 3r)-3-(3-chloro-4-cyanophenoxy)-2,2,4,4-tetramethylcyclobutyl)-6-(4-(2-(3-(4-(ethylsulfonamido)-2-(6-methyl-7-oxo-6,7-dihydro-1H-pyrrolo[2,3-c]pyridin-4-yl)phenoxy)phenoxy)ethoxy)piperidin-1-yl)nicotinamide]",< 0.5
2,CCS(=O)(=O)c1ccc(Oc2ccc(OCC3CCN(c4ncc5c(n4)CN([C@H]4C(C)(C)[C@H](Cc6ccc(C#N)c(Cl)c6)C4(C)C)C5=O)CC3)cc2)c(-c2cn(C)c(=O)c3[nH]ccc23)c1 [Compound I-220],> 3
3,CCS(=O)(=O)Nc1ccc(Oc2cccc(OC3CCC4(CC3)CCN(c3ncc(C(=O)N[C@H]5C(C)(C)[C@H](Oc6ccc(C#N)c(Cl)c6)C5(C)C)cn3)CC4)c2)c(-c2cn(C)c(=O)c3[nH]ccc23)c1 [Compound I-45],< 0.5
4,CCS(=O)(=O)Nc1ccc(Oc2cccc(CCOC3CCN(c4ncc(C(=O)N[C@H]5C(C)(C)[C@H](Oc6ccc(C#N)c(Cl)c6)C5(C)C)cn4)CC3)c2)c(-c2cn(C)c(=O)c3[nH]ccc23)c1 [Compound I-19],< 0.5

# Continued, values first:
row,GI50 [µM],SMILES
1,0.5 to 1.5,Cn1cc(-c2cc(C(C)(C)O)ccc2Oc2ccc(N3CC(CC4CCN(c5ncc(C(=O)N[C@H]6C(C)(C)[C@H](Oc7ccc(C#N)c(Cl)c7)C6(C)C)cn5)CC4)C3)cc2)c2cc[nH]c2c1=O [Compound I-232]
2,< 0.5,Cn1cc(-c2cc(C(C)(C)O)ccc2Oc2ccc(OCCN3CCN(c4ncc(C(=O)N[C@H]5C(C)(C)[C@H](Oc6ccc(C#N)c(Cl)c6)C5(C)C)cn4)CC3)cc2)c2cc[nH]c2c1=O [Compound I-204]
3,> 3,CC(C)N(C1CCN(c2ncc(C(=O)N[C@H]3C(C)(C)[C@H](Oc4ccc(C#N)c(Cl)c4)C3(C)C)cn2)CC1)C1CN(c2cccc(Oc3ccc(C(C)(C)O)cc3-c3cn(C)c(=O)c4[nH]ccc34)c2F)C1 [Compound I-221]
4,< 0.5,"CCS(=O)(=O)Nc1ccc(Oc2cccc(N3CC4(CN(CC5CCN(c6ncc(C(=O)N[C@H]7C(C)(C)[C@H](Oc8ccc(C#N)c(Cl)c8)C7(C)C)cn6)CC5)C4)C3)c2)c(-c2cn(C)c(=O)c3[nH]ccc23)c1 [Compound I-35, N-((1r, 3r)-3-(3-chloro-4-cyanophenoxy)-2,2,4,4-tetramethylcyclobutyl)-2-(4-((6-(3-(4-(ethylsulfonamido)-2-(6-methyl-7-oxo-6,7-dihydro-1H-pyrrolo[2,3-c]pyridin-4-yl)phenoxy)phenyl)-2,6-diazaspiro[3.3]heptan-2-yl)methyl)piperidin-1-yl)pyrimidine-5-carboxamide]"
5,< 0.5,Cn1cc(-c2cc(C(C)(C)O)ccc2Oc2ccc(N3CC(OC4CCN(c5ncc(C(=O)N[C@H]6C(C)(C)[C@H](Oc7ccc(C#N)c(Cl)c7)C6(C)C)cn5)CC4)C3)cc2)c2cc[nH]c2c1=O [Compound I-219]
